Assay [1] deals with IKKβ-mediated p65 phosphorylation (Ser536) in U2OS cells. As to the kind of experiment: TNFα-stimulated p65 (Ser536) phosphorylation, Western blotting. The class given is cell-based. The settings on record: Homo sapiens, 1 h pre-treatment, TNFα 30 min. How it is done:
To assess the translation of the biochemical potencies and selectivities described above to a cell-based setting, exemplars from the series were initially examined for inhibitory action against IKKs in the U2OS osteosarcoma cell line. This cell type was utilised to represent cells with a proliferative phenotype dependent on the constitutively activated IKKα-mediated non-canonical NF-κB pathway. Compounds 5r [SU1261]
U2OS cells were cultured in McCoy’s 5A Modified Medium, and PC-3M-Luc-C6 prostate cancer cells were cultured in Minimum Essential Medium (MEM), each containing 10% (v/v) Foetal Calf Serum (FCS), L-glutamine ([…]), and penicillin/streptomycin (250 units/mL; 100 μg/mL) and incubated in a humidified atmosphere at 37 °C with 5% (v/v) CO2. Cells were grown to near confluence and prior to experimentation rendered quiescent by serum deprivation for 24 h.
To examine the potential impact of compounds on canonical NF-κB signalling, cells were then exposed to vehicle (DMSO; 0.05% (v/v)) or increasing concentrations of compounds (0.01–30 µM) for 1 h prior to treatment with TNF⍺ (20 ng/mL) for 30 min. Whole-cell extracts were prepared, and the status of IκB⍺, phospho-p65 (Ser536), p65, and phospho-p105 ([…]) was also assessed by Western blotting.
Each figure/panel of Western blotting data represents one of at least three separate experiments. Western blots were scanned and imaged using Adobe Photoshop 5.0.2 software and polypeptide bands were semi-quantified by scanning densitometry using the Scion Image program. Data were normalised to fold expression/inhibition relative to ‘agonist plus vehicle’ treatment and expressed as mean ± s.e.m. IC50 values were established by curve fitting using the Hill equation.
Figure 11 Compound 5r [SU1261] inhibits FCS-stimulated p100 phosphorylation (Ser866/870) with no impact on TNFα-stimulated IkBα degradation and limited impact on phosphorylation of p65 (Ser536) in U2OS osteosarcoma cells. […] (0.3–30 µM) for 1 h prior to treatment with FCS (10% (v/v)) for 4 h, and phospho-p100 (Ser866/870) was assessed by Western blotting. […]
(In general: In western blotting, separated proteins are transferred to a membrane and probed.)

In the next assay the target is IR(h) (Homo sapiens, UniProt P06213). As to the kind of experiment: kinase panel. It is filed as biochemical. In short, it runs like this: (§1)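 Values are percent inhibition from kinome-wide profiling of three series compounds across 231 kinases, with a structurally similar analogue tested on only 98 selected kinases.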
For another assay, the target named is T1, GCK(h) (Homo sapiens, UniProt Q12851).
T1 sequence (Q12851 1-820): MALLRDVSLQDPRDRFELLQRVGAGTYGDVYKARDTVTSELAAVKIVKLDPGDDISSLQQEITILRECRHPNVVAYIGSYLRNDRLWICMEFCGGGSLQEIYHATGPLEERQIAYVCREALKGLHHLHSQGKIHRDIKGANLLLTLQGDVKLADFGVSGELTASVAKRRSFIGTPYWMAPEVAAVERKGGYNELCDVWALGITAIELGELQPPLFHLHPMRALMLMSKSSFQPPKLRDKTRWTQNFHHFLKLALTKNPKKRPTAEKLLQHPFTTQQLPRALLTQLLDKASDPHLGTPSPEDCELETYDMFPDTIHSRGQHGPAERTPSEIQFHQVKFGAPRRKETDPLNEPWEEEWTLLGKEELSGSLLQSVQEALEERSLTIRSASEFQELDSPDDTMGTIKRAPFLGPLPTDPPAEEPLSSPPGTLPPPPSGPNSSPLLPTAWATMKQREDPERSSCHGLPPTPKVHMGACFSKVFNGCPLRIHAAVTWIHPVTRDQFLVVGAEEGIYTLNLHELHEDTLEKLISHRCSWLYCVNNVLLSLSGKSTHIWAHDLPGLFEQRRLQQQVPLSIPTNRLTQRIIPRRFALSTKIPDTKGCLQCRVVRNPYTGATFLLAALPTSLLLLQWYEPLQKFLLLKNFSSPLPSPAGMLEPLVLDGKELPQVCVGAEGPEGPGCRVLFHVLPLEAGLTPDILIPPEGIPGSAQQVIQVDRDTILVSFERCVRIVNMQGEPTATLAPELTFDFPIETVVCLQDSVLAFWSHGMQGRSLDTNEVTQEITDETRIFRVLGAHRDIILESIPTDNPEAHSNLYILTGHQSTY
As to the kind of experiment: kinase panel. It is filed as biochemical. In short, it runs like this:
as §1

Another assay addresses T2, MKK7β(h) (Homo sapiens, UniProt O14733).
T2 sequence (O14733 1-419): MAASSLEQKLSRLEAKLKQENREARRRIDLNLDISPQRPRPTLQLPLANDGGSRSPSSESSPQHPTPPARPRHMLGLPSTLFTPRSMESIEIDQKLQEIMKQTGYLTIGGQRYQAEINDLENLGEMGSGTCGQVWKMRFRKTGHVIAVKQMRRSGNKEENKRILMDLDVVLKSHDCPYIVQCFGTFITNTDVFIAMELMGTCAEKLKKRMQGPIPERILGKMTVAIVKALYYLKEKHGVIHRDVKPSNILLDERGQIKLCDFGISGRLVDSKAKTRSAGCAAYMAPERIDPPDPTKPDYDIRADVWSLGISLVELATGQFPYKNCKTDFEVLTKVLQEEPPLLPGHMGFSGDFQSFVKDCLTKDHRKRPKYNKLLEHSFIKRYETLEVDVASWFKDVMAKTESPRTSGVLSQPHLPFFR
As to the kind of experiment: kinase panel. The class given is biochemical. In short, it runs like this:
as §1

A further assay deals with EGFR(h) (Homo sapiens, UniProt P00533). Briefly: kinase panel. The class given is biochemical. In short, it runs like this:
as §1

Results on three molecules are retold here after PMC11314561, “Design and Synthesis of Novel Aminoindazole-pyrrolo[2,3-b]pyridine Inhibitors of IKKα That Selectively Perturb Cellular Non-Canonical NF-κB Signalling” (Molecules, 2024).

By IC50 is commonly meant the concentration needed to halve the response being measured. In general, inhibition refers to the drop in the measured response relative to a control, in per cent.

Sequence of IR(h) (P06213 28-1382): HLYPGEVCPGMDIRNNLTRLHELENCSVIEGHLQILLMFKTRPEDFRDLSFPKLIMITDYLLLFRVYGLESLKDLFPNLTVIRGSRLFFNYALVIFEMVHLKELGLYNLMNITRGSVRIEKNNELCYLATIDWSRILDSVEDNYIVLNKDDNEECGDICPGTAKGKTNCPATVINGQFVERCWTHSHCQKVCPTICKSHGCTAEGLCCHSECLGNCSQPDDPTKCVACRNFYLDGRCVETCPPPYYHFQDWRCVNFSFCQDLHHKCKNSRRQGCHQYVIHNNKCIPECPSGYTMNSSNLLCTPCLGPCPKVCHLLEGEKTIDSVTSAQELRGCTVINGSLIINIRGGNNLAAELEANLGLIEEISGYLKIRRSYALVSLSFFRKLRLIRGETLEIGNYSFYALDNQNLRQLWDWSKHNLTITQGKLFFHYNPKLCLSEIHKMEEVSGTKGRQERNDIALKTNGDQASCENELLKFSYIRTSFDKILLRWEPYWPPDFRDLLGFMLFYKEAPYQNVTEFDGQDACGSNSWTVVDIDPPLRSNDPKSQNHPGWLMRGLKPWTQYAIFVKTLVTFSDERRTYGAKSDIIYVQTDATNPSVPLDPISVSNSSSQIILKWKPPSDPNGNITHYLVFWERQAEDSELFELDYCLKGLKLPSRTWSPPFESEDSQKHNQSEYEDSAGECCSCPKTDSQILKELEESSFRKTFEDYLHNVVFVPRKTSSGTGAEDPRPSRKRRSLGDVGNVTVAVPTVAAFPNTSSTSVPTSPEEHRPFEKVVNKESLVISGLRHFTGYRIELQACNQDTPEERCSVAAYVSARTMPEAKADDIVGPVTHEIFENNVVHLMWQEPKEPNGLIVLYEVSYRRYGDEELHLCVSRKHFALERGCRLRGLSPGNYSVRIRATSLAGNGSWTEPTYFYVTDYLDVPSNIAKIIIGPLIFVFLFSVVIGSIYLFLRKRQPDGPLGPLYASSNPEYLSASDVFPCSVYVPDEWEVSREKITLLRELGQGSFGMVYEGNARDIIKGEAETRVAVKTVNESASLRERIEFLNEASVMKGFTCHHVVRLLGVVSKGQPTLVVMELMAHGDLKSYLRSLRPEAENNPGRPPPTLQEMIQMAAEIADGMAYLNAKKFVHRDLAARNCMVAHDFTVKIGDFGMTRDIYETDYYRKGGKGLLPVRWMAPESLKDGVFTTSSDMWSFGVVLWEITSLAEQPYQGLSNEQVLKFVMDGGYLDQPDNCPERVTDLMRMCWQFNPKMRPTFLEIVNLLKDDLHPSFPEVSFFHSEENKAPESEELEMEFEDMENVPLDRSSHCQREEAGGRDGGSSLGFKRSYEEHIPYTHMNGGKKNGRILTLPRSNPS
Sequence of EGFR(h) (P00533 25-1210): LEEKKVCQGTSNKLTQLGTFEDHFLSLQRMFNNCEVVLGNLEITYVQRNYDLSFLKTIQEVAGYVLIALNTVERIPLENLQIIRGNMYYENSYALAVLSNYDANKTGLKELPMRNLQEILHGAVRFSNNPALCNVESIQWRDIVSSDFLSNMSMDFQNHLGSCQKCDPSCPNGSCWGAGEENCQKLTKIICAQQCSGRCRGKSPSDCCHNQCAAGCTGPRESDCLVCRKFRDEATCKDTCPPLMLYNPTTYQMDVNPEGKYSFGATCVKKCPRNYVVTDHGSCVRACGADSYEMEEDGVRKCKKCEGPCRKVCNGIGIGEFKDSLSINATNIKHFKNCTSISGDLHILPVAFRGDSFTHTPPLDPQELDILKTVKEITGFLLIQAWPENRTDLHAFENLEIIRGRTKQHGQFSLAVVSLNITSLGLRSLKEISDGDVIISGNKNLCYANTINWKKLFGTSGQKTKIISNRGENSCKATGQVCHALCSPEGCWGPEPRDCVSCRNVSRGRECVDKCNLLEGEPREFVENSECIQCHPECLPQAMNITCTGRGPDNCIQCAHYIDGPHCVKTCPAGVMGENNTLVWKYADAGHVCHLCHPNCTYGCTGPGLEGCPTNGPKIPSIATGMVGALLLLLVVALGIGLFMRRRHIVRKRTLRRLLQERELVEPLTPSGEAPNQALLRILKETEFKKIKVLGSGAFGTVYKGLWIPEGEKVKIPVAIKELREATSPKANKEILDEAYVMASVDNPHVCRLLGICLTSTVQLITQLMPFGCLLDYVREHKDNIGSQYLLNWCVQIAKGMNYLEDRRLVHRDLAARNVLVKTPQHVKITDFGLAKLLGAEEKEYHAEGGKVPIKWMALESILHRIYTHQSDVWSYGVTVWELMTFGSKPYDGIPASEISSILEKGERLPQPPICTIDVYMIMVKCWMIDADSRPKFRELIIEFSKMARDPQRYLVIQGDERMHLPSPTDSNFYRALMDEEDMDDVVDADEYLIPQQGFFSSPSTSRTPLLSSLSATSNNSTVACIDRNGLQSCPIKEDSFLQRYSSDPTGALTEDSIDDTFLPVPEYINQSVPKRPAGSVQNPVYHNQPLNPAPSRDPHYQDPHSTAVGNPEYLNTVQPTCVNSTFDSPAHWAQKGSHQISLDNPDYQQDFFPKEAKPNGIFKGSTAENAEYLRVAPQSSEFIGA

Take `Nc1n[nH]c2ccc(-c3ccnc4[nH]c(-c5ccccc5)cc34)cc12` [Compound 4]: the IC50 in assay [1] was found to be 0.3 µM. The inhibition at 1 µM against IR(h) amounted to 50%; on GCK(h), 98%; on MKK7β(h), 80%; against EGFR(h), 13%.

For the molecule `Nc1n[nH]c2ccc(-c3ccnc4[nH]c(-c5cccc(OCc6ccccc6)c5)cc34)cc12` [Compound 5r [SU1261]], in assay [1], the IC50 worked out at 5.64 µM. Besides, the inhibition at 1 µM against IR(h) amounted to 4%; against GCK(h), 86%; against MKK7β(h), 99%; on EGFR(h) it was 5%.

Regarding `Nc1n[nH]c2ccc(-c3ccnc4[nH]c(-c5ccnc(OCc6ccccc6)c5)cc34)cc12` [Compound 6g [SU1349]], the concentration for half-maximal inhibition (IC50) in assay [1] is above 30 µM. Further, the inhibition at 1 µM on IR(h) was -1%; against GCK(h), 71%; on MKK7β(h), 11%; against EGFR(h), -8%.
